Data reported in PMC9960827, “Cloning and Characterization of Trypanosoma congolense and T. vivax Nucleoside Transporters Reveal the Potential of P1-Type Carriers for the Discovery of Broad-Spectrum Nucleoside-Based Therapeutics against Animal African Trypanosomiasis” (International Journal of Molecular Sciences, 2023).
Where “and” joins values, the source holds several entries; their conditions need not be identical. Identical values can stand only once. Like-named read-outs stand apart in the source and are kept apart here. Marks after values point to notes of the source that are not given here.

How the values were obtained:
L. mexicana Cas9 = assay: Resazurin drug sensitivity assay, LmexCas9; assay type: cell-based, Leishmania mexicana; settings: read-out: LmexCas9 EC50
Outline: (§1)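 Reported figures represent means over a minimum of three separate-day experiments. In every experiment, EC50 is obtained by nonlinear fitting to a variable-slope sigmoid.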

T. brucei TbAT1-KO = settings: cited from earlier work
TcoAT1 [1] = assay type: cell-based, Trypanosoma congolense; settings: for Ki: 0.05 µM [3H]-adenosine, 10 s, IC50 converted to Ki, read-out: Ki on the transport of [3H]-adenosine; for ΔG0: Gibbs free energy of binding, from Km or Ki
Outline: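 Transporter genes were expressed in an L. mexicana line lacking NT1 and NT2 (SUPKO), and 1 × 10^7 cells in HEPES/bicarbonate buffer pH 7.3 took up radiolabeled permeant through an oil layer, with or without inhibitor. Uptake was stopped with ice-cold unlabeled substrate or by centrifugation, and pellets were counted. IC50 against radiolabeled adenosine was converted to Ki by Cheng–Prusoff using the permeant Km.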

T. congolense IL3000 [2] = assay: Alamar Blue (resazurin) assay, T. congolense IL3000; assay type: cell-based, Trypanosoma congolense; settings: Trypanosoma congolense, read-out: T. congolense IL3000 EC50
Experimental: (§2) EC50 values were determined by plotting to an equation for a sigmoid curve with variable slope (GraphPad Prism 8). All values were the average of at least three independent determinations on different days.

[3] = target: T. congolense adenosine transporter; assay: [3H]-adenosine uptake and its inhibition in T. congolense IL3000 bloodstream forms; assay type: cell-based, Trypanosoma congolense; settings: 0.05 µM [3H]-adenosine, 30 s; IC50 converted to Ki; read-out: Ki on the transport of [3H]-adenosine
Outline: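 Bloodstream-form T. congolense IL3000 (1 × 10^7 cells) in HEPES/bicarbonate buffer pH 7.3 took up [3H]-adenosine over a set interval, with or without inhibitor, ending by ice-cold unlabeled substrate stop or centrifugation through oil. Pellet radioactivity gave IC50 by sigmoid fit; Ki followed by Cheng–Prusoff using adenosine Km.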

T. congolense 6C3 [4] = assay: microbe, parasite or virus in culture; assay type: cell-based, Trypanosoma congolense; settings: for EC50: Trypanosoma congolense, diminazene resistant strain, resazurin, read-out: T. congolense 6C3 EC50; for T. congolense 6C3 RF: resistance factor = EC50 (test strain)/EC50(control strain)
Experimental: as §2

T. vivax [5] = test system: T. vivax; parameters: method as in Mabille et al. [69]; settings: added for comparison only; ref Mabille et al. [69]; cited from earlier work
[6] = target: T. b. brucei P1 (TbP1/NT2); settings: cited from earlier work
TvxNT3 = TvxNT3 (Trypanosoma vivax, UniProt F9WV62); assay: cell-based; assay type: cell-based
From the text: The information for the T. congolense adenosine transporter (TcoAT1) and four putative T. vivax nucleoside transporters was obtained in the TritrypDB (tritrypdb.org/tritrypdb) genome database. Primers were designed to flank each gene upstream of the 5′ end (forward) and downstream of the 3′ end (reverse) as described (primer sequences in Supplementary Table S2). Following amplification from the genomic DNA of T. congolense or T. vivax, DNA for each extracted gene was ligated into the pNUS-HcN expression vector doubly digested with NdeI using the NEBuilder kit according to the manufacturer’s instructions (New England Biolabs). Construct was transformed into competent E. coli cells, and ligation was confirmed by restriction enzyme digestion of isolated plasmid DNA followed by Sanger sequencing (Source BioScience, Nottingham, UK). Confirmed plasmids were then transfected into L. mexicana cell line in which both NT1 and NT2 were doubly knocked out (SUPKO) and derived from L. mexicana Cas9 [64] as described. Clones grown in medium containing 50 μg/mL neomycin (G418) were collected for further confirmation by PCR with genomic DNA using a forward primer of the transporter gene and a reverse primer of the plasmid.
(§3) Uptake assays using radiolabeled trypanocides and/or nucleosides were carried out as described previously. Briefly, parasite cultures were harvested, washed twice in assay buffer (33 mM HEPES, 98 mM NaCl, 4.6 mM KCl, 0.5 mM CaCl2, 0.07 mM MgSO4, 5.8 mM NaH3PO4, 0.03 mM MgCl2, 23 mM NaHCO3, 14 mM D-glucose, pH 7.3), then resuspended and adjusted to a density of 1 × 10^8 cells/mL in assay buffer. The radiolabeled permeant in the presence or absence of different concentrations of potential inhibitors reconstituted in 100 μL assay buffer was deposited on top of 250 μL oil mix in microcentrifuge tubes; 1 × 10^7 parasites in 100 μL assay buffer were added to the tube and incubated for a pre-determined interval. The reaction was stopped by the addition of 1 mL of a high concentration of ice-cold unlabeled substrate in assay buffer (‘stop solution’) and centrifugation, or by immediate centrifugation at […] as appropriate. The microcentrifuge tubes were flash-frozen, and the bottom of each tube containing the cell pellet was cut off and transferred to a scintillation vial. Cell pellets were lysed in 2% SDS, after which scintillation fluid (Scintlogic U, Lablogic) was added, followed by overnight incubation in the dark. Scintillation was measured in a 300SL (Hidex) scintillation counter (Hidex). All the assays were conducted in triplicate and analysis was carried out using Microsoft Excel and GraphPad Prism. All kinetic parameters were obtained on at least 3 separate occasions.
The dose-dependent uptake assay allowed for the affinity of nucleoside analogs to different nucleoside transporters to be determined by measuring the extent to which the analogs compete with and inhibit the uptake of radiolabel adenosine. This allowed for the determination of biochemical parameters such as Km and Vmax through the application of the Michaelis–Menten equation V0 = Vmax([substrate]/([substrate] + Km)). The 50% Inhibitory Concentration (IC50) of the purines and pyrimidines and their analogs was determined from non-linear regression to sigmoid curves with variable slope (Prism 8), and the IC50 of the inhibitor and the Km of the labeled permeant were then used to calculate the inhibition constant (Ki) of the analogs through the Cheng–Prusoff equation: Ki = IC50/(1 + (L/Km)), where L denotes the radiolabel concentration. The calculated Ki was in turn used to determine the Gibbs free energy (ΔG^0) of the inhibitor–transporter interaction using the equation: ΔG^0 = -RTln(Ki), where R represents the gas constant and T symbolizes the absolute temperature in Kelvin [104].

L. mexicana SUPKO+TcoAT1 = assay: microbe, parasite or virus in culture; assay type: cell-based, Leishmania mexicana; settings: for EC50: read-out: SUPKO+TcoAT1 EC50
Outline: as §1

L. mexicana SUPKO+TvxNT3 = assay: microbe, parasite or virus in culture; assay type: cell-based, Leishmania mexicana; settings: for EC50: read-out: SUPKO+TvxNT3 EC50
Outline: as §1

L. mexicana SUPKO = assay: microbe, parasite or virus in culture; assay type: cell-based, Leishmania mexicana; settings: for SUPKO RF (Cas9): Resistance Factor = EC50(SUPKO)/EC50(Cas9)
Outline: as §1

T.b.b. B48 [7] = assay: Alamar Blue (resazurin) assay, T. b. brucei B48; assay type: cell-based, Trypanosoma brucei brucei; settings: Trypanosoma brucei, read-out: T.b.b. B48 EC50
Experimental: as §2

TcoAT1 [8] = assay: Uptake of [3H]-pentamidine and [3H]-diminazene in SUPKO+TcoAT1 versus SUPKO; assay type: cell-based, Trypanosoma congolense; settings: 25 nM [3H]-pentamidine or 50 nM [3H]-diminazene, SUPKO+TcoAT1 vs SUPKO
Experimental: as §3, with “All the assays were conducted in triplicate and analysis was carried out using Microsoft Excel and GraphPad Prism. All kinetic parameters were obtained on at least 3 separate occasions.” left out

T. equiperdum [9] = assay: Alamar Blue (resazurin) assay, T. equiperdum; assay type: cell-based, Trypanosoma equiperdum; settings: Trypanosoma equiperdum, read-out: T. equiperdum EC50
Experimental: as §2

T. evansi [10] = assay: Alamar Blue (resazurin) assay, T. evansi; assay type: cell-based, Trypanosoma evansi; settings: Trypanosoma evansi, read-out: T. evansi EC50
Experimental: as §2

[11] = test system: human embryonic kidney (HEK) cells; assay: Resazurin toxicity assay on human embryonic kidney cells; assay type: cell-based; settings: for SI T. congolense: selectivity index = EC50 (HEK cells)/EC50 (T. congolense); for SI T. equiperdum: selectivity index = EC50 (HEK cells)/EC50 (T. equiperdum); for SI T. evansi: selectivity index = EC50 (HEK cells)/EC50 (T. evansi)
Experimental: as §2

[12] = as above; assay type: cell-based; settings: human
Experimental: as §2

T. evansi [13] = test system: T. evansi; parameters: method as in Hulpia et al. [38]; settings: compound marked *; ref Hulpia et al. [38]; cited from earlier work
T. congolense 6C3 [14] = test system: T. congolense 6C3; parameters: method as in Hulpia et al. [38]; settings: values marked *; ref Hulpia et al. [38]; cited from earlier work
T. congolense IL3000 [15] = test system: T. congolense IL3000; parameters: method as in Hulpia et al. [38]; settings: values marked *; ref Hulpia et al. [38]; cited from earlier work
T.b.b. B48 [16] = test system: T.b.b. B48; parameters: method as in Hulpia et al. [38]; settings: compound marked *; ref Hulpia et al. [38]; cited from earlier work
T. vivax [17] = assay: T. vivax EC50 (from Mabille et al.); assay type: cell-based, Trypanosoma vivax; settings: from Table 8 data
T. equiperdum [18] = test system: T. equiperdum; parameters: method as in Hulpia et al. [38]; settings: compound marked *; ref Hulpia et al. [38]; cited from earlier work
[19] = Leishmania mexicana, read-out: SUPKO EC50, resazurin, promastigotes
[20] = Resistance Factor relative to SUPKO

TvxNT3, sequence (F9WV62 entry or part of it): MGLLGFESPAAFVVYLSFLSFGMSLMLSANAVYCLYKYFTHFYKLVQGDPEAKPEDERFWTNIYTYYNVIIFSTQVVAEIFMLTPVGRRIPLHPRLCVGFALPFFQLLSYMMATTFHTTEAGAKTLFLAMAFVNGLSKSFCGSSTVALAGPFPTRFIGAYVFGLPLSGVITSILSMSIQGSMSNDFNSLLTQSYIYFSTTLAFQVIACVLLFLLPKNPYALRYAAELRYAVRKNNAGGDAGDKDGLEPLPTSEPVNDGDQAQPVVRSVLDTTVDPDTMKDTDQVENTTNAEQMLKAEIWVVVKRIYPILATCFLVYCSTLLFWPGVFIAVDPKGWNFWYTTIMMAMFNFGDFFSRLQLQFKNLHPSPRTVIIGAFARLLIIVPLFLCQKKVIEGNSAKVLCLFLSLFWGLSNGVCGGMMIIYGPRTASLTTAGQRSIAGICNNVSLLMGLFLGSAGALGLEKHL

Structure (SMILES): Nc1ncnc2c1ncn2[C@@H]1O[C@H](CO)C[C@H]1O [Cordycepin, 3′-deoxyadenosine]
- EC50 (L. mexicana Cas9; Leishmania mexicana): 91.6 ± 12.9 µM
- resistance of the TbAT1-KO strain (T. brucei TbAT1-KO): 17 fold
- fold difference in affinity compared to adenosine (TcoAT1 [1]): 10 fold
- Ki (TcoAT1 [1]): 4.59 µM and 4.6 µM
- ΔG0 (TcoAT1 [1]): -30.5 kJ/mol
- δ(ΔG0) (TcoAT1 [1]; loss of Gibbs free energy of binding relative to the parent nucleoside): 5.94 kJ/mol
- EC50 (T. congolense IL3000 [2]; BSF, resazurin): 2460 ± 420 nM
- Ki [3]: 12 ± 2 µM
- EC50 (T. congolense 6C3 [4]): 2160 ± 440 nM
- T. congolense 6C3 RF (T. congolense 6C3 [4]): 0.88
- EC50 (T. vivax [5]): 120 ± 20 nM
- Ki ([6]; T. b. brucei bloodstream forms, read-out: Tbb P1 Ki): 210 ± 48 µM
- Tbb P1 ΔG0 [6]: -21.0 kJ/mol
- δ(ΔG0) (TvxNT3; difference in ΔG0 relative to the parent purine (adenosine or inosine)): -4.47 kJ/mol
- EC50 (L. mexicana SUPKO+TcoAT1; Leishmania mexicana): > 100 µM
- EC50 (L. mexicana SUPKO+TvxNT3; Leishmania mexicana): > 100 µM
- EC50 (L. mexicana SUPKO; [19]): > 100 µM
- SUPKO RF (Cas9) (L. mexicana SUPKO): >1.09

Structure (SMILES): N=C(N)c1ccc(/N=N/Nc2ccc(C(=N)N)cc2)cc1 [Diminazene, reference compound]
- EC50 (T.b.b. B48 [7]): 340 ± 130 nM
- effect of the expression of TcoAT1 on the uptake of the trypanocide (TcoAT1 [8]): no effect
- EC50 (T. congolense IL3000 [2]): 230 ± 40 nM
- EC50 (T. congolense 6C3 [4]): 1320 ± 430 nM
- T. congolense 6C3 RF (T. congolense 6C3 [4]): 5.7 ^a
- SUPKO RF (Cas9) (L. mexicana SUPKO): 1.27

Structure (SMILES): Nc1ncnc2c1c(Br)cn2[C@@H]1O[C@H](CO)C[C@H]1O [FH7429_u, 7-bromo-7-deaza-3′-deoxyadenosine]
- EC50 (T.b.b. B48 [7]): 4.8 ± 0.5 nM
- EC50 (L. mexicana Cas9; Leishmania mexicana): 27.3 ± 7 µM
- Ki (TcoAT1 [1]): 259 ± 11 µM
- ΔG0 (TcoAT1 [1]): -20.5 kJ/mol
- EC50 (T. congolense IL3000 [2]): 0.69 ± 0.07 nM
- EC50 (T. equiperdum [9]): 0.51 ± 0.07 nM
- EC50 (T. congolense 6C3 [4]): 0.49 ± 0.09 nM
- T. congolense 6C3 RF (T. congolense 6C3 [4]): 0.71
- EC50 (T. evansi [10]): 0.9 ± 0.22 nM
- SI T. congolense [11]: 3158
- SI T. equiperdum [11]: 4271
- SI T. evansi [11]: 2430
- EC50 [12]: 2180 ± 410 nM
- EC50 (T. vivax [5]): 18 ± 3 nM
- ΔG0 (TvxNT3; Gibbs free energy of interaction, from Km or Ki): -21.5 kJ/mol
- EC50 (L. mexicana SUPKO+TcoAT1; Leishmania mexicana): 27 ± 5.8 µM
- SUPKO+TcoAT1 RF (SUPKO) (L. mexicana SUPKO+TcoAT1; [20]): >7.4
- EC50 (L. mexicana SUPKO+TvxNT3; Leishmania mexicana): 42.9 ± 12 µM
- SUPKO+TvxNT3 RF (SUPKO) (L. mexicana SUPKO+TvxNT3; [20]): >2.33
- EC50 (L. mexicana SUPKO; [19]): > 250 µM
- SUPKO RF (Cas9) (L. mexicana SUPKO): >3.6

Structure (SMILES): Nc1ncnc2c1c(-c1ccccn1)cn2[C@@H]1O[C@H](CO)[C@@H](O)[C@H]1O [TH1008]
- EC50 (L. mexicana Cas9; resazurin, promastigotes): 11.7 ± 0.5 µM
- EC50 (T. evansi [13]): 40 ± 5 nM
- EC50 (T. congolense 6C3 [14]): 56 ± 13 nM
- T. congolense 6C3 RF (T. congolense 6C3 [4]): 0.33
- EC50 (T. congolense IL3000 [15]): 170 ± 50 nM
- EC50 (T.b.b. B48 [16]): 390 ± 30 nM
- fold higher EC50 against T. vivax compared to T. congolense (T. vivax [17]): 10–165 fold
- EC50 ([11]; resazurin, 96 well plates, read-out: HEK EC50): 18.5 ± 1.5 µM
- SI T. congolense [11]: 110
- SI T. equiperdum [11]: 303
- SI T. evansi [11]: 466
- EC50 (T. vivax [5]): 12900 ± 4400 nM
- EC50 (T. equiperdum [18]): 61 ± 5 nM
- EC50 (L. mexicana SUPKO+TcoAT1; resazurin, promastigotes): > 100 µM
- EC50 (L. mexicana SUPKO+TvxNT3; resazurin, promastigotes): > 100 µM
- SUPKO RF (Cas9) (L. mexicana SUPKO): >8.5
- EC50 (L. mexicana SUPKO; resazurin, promastigotes, read-out: SUPKO EC50): > 100 µM
